Tests used:
[1] = Visual clarity of PTSsol formulations on storage; type: physicochemical; details: for Time formulation remained visibly clear without drug precipitating out: stored refrigerated, exemplary PTSsol, 1% and 2.5% brinzolamide, 1% cyclosporine A, 0.07% and 0.1% difluprednate; for Time formulation remained clear and stable: PTSsol, stored at room temperature or refrigerated at 4° C., 1% cyclosporine, up to 2.5% brinzolamide
Protocol: (§1) Hydrophobic active agents that are difficult to formulate in aqueous compositions are typically formulated as emulsions or suspensions. […] Similarly, PTSsol for 0.5% celecoxib was prepared in 10% PTS121GH in PBS buffer at pH 7.4. […] Referring to FIGS. 2 and 3 the stability of 2.5% brinzolamide in 25% 1-0 GH polymer dispersion in PBS at pH 7.4 was analyzed over 8 weeks, using HPLC.
In this example, an artificial tear composition using PTSsol polymers was generated. PTS solutions are clear, bioadhesive, biocompatible, and biodegradable polymers ideal for sensitive medical applications, such as preparing artificial tears for relieving eye discomfort caused by dry eye. […] Additional excipients can be added to the formulation as desired.

[2] = Dissolving hydrophobic active agents in PTSsol as clear aqueous liquids; type: physicochemical
Protocol: as §1

| Time formulation remained visibly clear without drug precipitating out [1] [days] | Dissolution in hydrophilic polymer ([2]; directly in PTS121 GH polymer) | Drug concentration of stable aqueous formulation ([2]; first dissolved in gelling polymer 113 GH or 122 GH, then mixed with PTS121 GH) [%] | Time formulation remained clear and stable [1] [weeks] | Time formulation remained clear and stable ([1]; listed as BRZ) [weeks] | Drug concentration dissolved as clear liquid ([2]; in 10% PTS1-0GH PTSsol) | Drug concentration dissolved as very clear liquid ([2]; in 10% of 121GH polymer) [%] | SMILES |
| --- | --- | --- | --- | --- | --- | --- | --- |
| 8 | does not readily dissolve | ≤ 0.1 | – | – | – | – | CCCC(=O)O[C@]1(C(=O)COC(C)=O)CC[C@H]2[C@@H]3C[C@H](F)C4=CC(=O)C=C[C@]4(C)[C@@]3(F)[C@@H](O)C[C@@]21C [difluprednate] |
| 28 | – | – | 8 | ≥ 8 | up to 2.5% | 2.5 | CCN[C@H]1CN(CCCOC)S(=O)(=O)c2sc(S(N)(=O)=O)cc21 [brinzolamide] |

— patent US10207003B2, “Liquid pentablock co-polymer formulations for sustained delivery of therapeutics” (i-novion, Inc., priority 2016, dated 2019)
